From ChEMBL document CHEMBL1201862, “PubChem BioAssay data set” (2004)
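Compound exposure: 48 hours, 5 concentrations, 96-well plates. The concentration for 50% growth inhibition is given as GI50.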 The source made the active and inactive calls. Rule as the data show it: active = GI50 up to about 1.1 µM and inactive = higher. Where a SMILES comes first, the peptide text is derived from it. The star is where a group is joined. Boc = CC(C)(C)OC(=O)*; OSu = O=C1CCC(=O)N1O*

Assays:
Experiment in all cases: NCI anticancer screen, dose series, 48 h
CCRF-CEM = system: CCRF-CEM
COLO 205 = system: COLO 205
DU-145 = system: DU-145
HCT-116 = system: HCT-116
HCT-15 = system: HCT-15
HOP-92 = system: HOP-92
IGROV-1 = system: IGROV-1
K562 = system: K562
LOX IMVI = system: LOX IMVI
MOLT-4 = system: MOLT-4
OVCAR-4 = system: OVCAR-4
SK-MEL-2 = system: SK-MEL-2
SK-MEL-5 = system: SK-MEL-5
SN12C = system: SN12C
SR = system: SR
SW-620 = system: SW-620
U-251 = system: U-251
UACC-62 = system: UACC-62
Malme-3M = system: Malme-3M
NCI-H23 = system: NCI-H23

| Structure (SMILES) | GI50 (CCRF-CEM) | GI50 (COLO 205) | GI50 (DU-145) | GI50 (HCT-116) | GI50 (HCT-15) | GI50 (HOP-92) | GI50 (IGROV-1) | GI50 (K562) | GI50 (LOX IMVI) | GI50 (MOLT-4) | GI50 (OVCAR-4) | GI50 (SK-MEL-2) | GI50 (SK-MEL-5) | GI50 (SN12C) | GI50 (SR) | GI50 (SW-620) | GI50 (U-251) | GI50 (UACC-62) | GI50 (Malme-3M) | GI50 (NCI-H23) |
| --- | --- | --- | --- | --- | --- | --- | --- | --- | --- | --- | --- | --- | --- | --- | --- | --- | --- | --- | --- | --- |
| BrCC[P+](c1ccccc1)(c1ccccc1)c1ccccc1 | 2.25 µM (inactive) | 2.87 µM (inactive) | 6.49 µM (inactive) | 2.28 µM (inactive) | 32.7 µM | 3.57 µM (inactive) | 13.3 µM (inactive) | 1.77 µM (inactive) | 4.23 µM (inactive) | 4.43 µM (inactive) | 6.5 µM (inactive) | 5.26 µM (inactive) | 8.11 µM (inactive) | 1.98 µM (inactive) | 4.93 µM (inactive) | 2.51 µM (inactive) | 3.87 µM (inactive) | 6.58 µM (inactive) |  |  |
| C=CC(=C)CCC(Br)C(C)(C)Br (stereo not given) | 22.2 µM (inactive) | 74 µM (inactive) | > 100 µM (inactive) | 54.3 µM (inactive) | > 100 µM | 91.2 µM (inactive) | 80.7 µM (inactive) | 40.3 µM (inactive) |  | 15.6 µM (inactive) | > 100 µM (inactive) | > 100 µM (inactive) | > 100 µM (inactive) | > 100 µM (inactive) | > 100 µM (inactive) | 32.4 µM (inactive) | > 100 µM (inactive) | > 100 µM (inactive) | 41.2 µM (inactive) | > 100 µM (inactive) |
| O=CC12CCCN1CCC2 | > 100 µM (inactive) | > 100 µM (inactive) | > 100 µM (inactive) | > 100 µM (inactive) | > 100 µM |  | > 100 µM (inactive) | > 100 µM (inactive) | > 100 µM (inactive) | > 100 µM (inactive) | > 100 µM (inactive) | > 100 µM (inactive) | > 100 µM (inactive) | > 100 µM (inactive) | > 100 µM (inactive) | > 100 µM (inactive) | > 100 µM (inactive) | > 100 µM (inactive) | > 100 µM (inactive) | > 100 µM (inactive) |
| C=C(Cl)C(Cl)(CBr)CCC(Br)C(C)(C)Br (stereo not given) | 6.21 µM (inactive) | 2.75 µM (inactive) | 3.97 µM (inactive) | 1.74 µM (inactive) | 3.03 µM | 2.76 µM (inactive) | 18.2 µM (inactive) | 4.73 µM (inactive) | 15.3 µM (inactive) | 6.9 µM (inactive) | 16.3 µM (inactive) |  | 16.6 µM (inactive) | 7.28 µM (inactive) | 13.4 µM (inactive) | 3 µM (inactive) | 1.77 µM (inactive) | 9.93 µM (inactive) | 14.3 µM (inactive) | 14.2 µM (inactive) |
| COC(=O)C(NC(=O)c1ccccc1)c1ccco1 (stereo not given) | > 100 µM (inactive) |  | > 100 µM (inactive) | > 100 µM (inactive) | > 100 µM | > 100 µM (inactive) | > 100 µM (inactive) | > 100 µM (inactive) |  | > 100 µM (inactive) |  |  | > 100 µM (inactive) | > 100 µM (inactive) | > 100 µM (inactive) | > 100 µM (inactive) | > 100 µM (inactive) | > 100 µM (inactive) | > 100 µM (inactive) | > 100 µM (inactive) |
| C=CCOC(=O)C1C2OC3(C(C(=O)OC)=C2C(=O)OC)c2ccccc2CCC13 (stereo not given) | > 10 µM (inactive) | > 10 µM (inactive) | > 10 µM (inactive) | > 10 µM (inactive) | > 10 µM |  | > 10 µM (inactive) | > 10 µM (inactive) | > 10 µM (inactive) | > 10 µM (inactive) | > 10 µM (inactive) | > 10 µM (inactive) | > 10 µM (inactive) | > 10 µM (inactive) | > 10 µM (inactive) | > 10 µM (inactive) | > 10 µM (inactive) | > 10 µM (inactive) | > 10 µM (inactive) | > 10 µM (inactive) |
| N[C@H]1CCC[C@@H](O)C1O (stereo not given in full) |  |  | > 100 µM (inactive) | > 100 µM (inactive) | > 100 µM |  |  | > 100 µM (inactive) | > 100 µM (inactive) |  |  | > 100 µM (inactive) | > 100 µM (inactive) | > 100 µM (inactive) | > 100 µM (inactive) | > 100 µM (inactive) | > 100 µM (inactive) | > 100 µM (inactive) |  | > 100 µM (inactive) |
| CC(NC(=O)C(NC(=O)OC(C)(C)C)C(C)C)C(=O)NCC(=O)ON1C(=O)CCC1=O (stereo not drawn) (Boc-Val-Ala-Gly-OSu; configuration not given here) |  | > 100 µM (inactive) | > 100 µM (inactive) | > 100 µM (inactive) | > 100 µM | 22.8 µM (inactive) | > 100 µM (inactive) | > 100 µM (inactive) |  | 45.9 µM (inactive) |  | > 100 µM (inactive) | > 100 µM (inactive) | > 100 µM (inactive) | > 100 µM (inactive) | > 100 µM (inactive) | > 100 µM (inactive) | > 100 µM (inactive) | > 100 µM (inactive) | > 100 µM (inactive) |
